Measured values: patent US20080262097A1, “Formulations” (priority 2005, published 2008)
Converted amounts (≈) assume the structure as drawn. Like-named read-outs stand apart in the source and are kept apart here.

Experiments:
P. acnes NCTC 737 [1] = test: Synergy disc diffusion assay (SDDA); assay type: cell-based, Propionibacterium acnes; settings: for SDDA area increase / SDDA increase: quinone + BP; for SDDA area increase: over larger single-compound zone; for SDDA increase: over larger single-compound zone diameter; for SDDA with BP: quinone combined with BP on one disc, 200 μg of each
Method: 2. Propionibacterium spp.—the principal propionibacterial strain used in these studies was Propionibacterium acnes NCTC 737.
(§1) The Propionibacterium spp organisms were cultured and maintained on Wilkins-Chalgren Anaerobe Medium (agar and broth) at pH 6.0; cultures were incubated anaerobically at 37° C. for 72 hours.
This is a variation on the DDA method, in which two compounds are tested together for their combined antimicrobial activity. It provides a qualitative indication as to whether the compounds are likely to interact synergistically.
Two test compounds A and B were placed on a single paper disc and the above described DDA procedure repeated.
Each of the quinones was then subjected, in combination with BP, to the SDDA assay described above.
For all (S)DDA assays, 200 μg of each compound was loaded onto each disc.

S. aureus ATCC 29213 [2] = test: Disc diffusion assay (DDA); assay type: cell-based, Staphylococcus aureus
Source text: 1. Staphylococcus aureus—the principal staphylococcal test micro-organism used in these studies was Staphylococcus aureus ATCC 29213. This strain is the one recommended for QC/QA purposes in Minimum Inhibitory Concentration (MIC) assays by the US Clinical and Laboratory Standards Institute (formerly the NCCLS), an FDA-recognised body. S. aureus ATCC 29213 is susceptible to beta-lactam antibiotics such as methicillin and to many other antibiotics in clinical use worldwide today. The staphylococci and enterococci were cultured and maintained on Mueller-Hinton Medium (agar and broth) at pH 7.2; they were incubated aerobically at 37° C. for 24 hours. A sterile paper disc was impregnated with a sample of the test compound and a minimum of 30 minutes allowed for the solvents to evaporate as far as possible. The disc was then placed on an agar plate onto which the test micro-organism had been inoculated. The plate was then incubated under the conditions described above, following which it was examined visually for signs of bacterial growth. If the test compound had antimicrobial activity, a circular zone of no growth would be obtained around the disc. The diameter of this zone of “inhibition” was measured using a ProtoCOL™ automated zone sizer (Synbiosis, Cambridge, UK). In general, a greater diameter and/or area of the zone of inhibition indicates a greater antimicrobial activity in the relevant test compound, although other factors such as test compound mobility through the agar gel may also influence the result. […] The exceptions were the thymoquinone assays, in which only 50 μg of the benzoquinone was used.

S. aureus ATCC 29213 [3] = test: MIC assay; assay type: cell-based, Staphylococcus aureus
Method: 1. Staphylococcus aureus—the principal staphylococcal test micro-organism used in these studies was Staphylococcus aureus ATCC 29213. This strain is the one recommended for QC/QA purposes in Minimum Inhibitory Concentration (MIC) assays by the US Clinical and Laboratory Standards Institute (formerly the NCCLS), an FDA-recognised body. […] The staphylococci and enterococci were cultured and maintained on Mueller-Hinton Medium (agar and broth) at pH 7.2; they were incubated aerobically at 37° C. for 24 hours. This is a standard international method for quantitatively assessing the antimicrobial activity of a compound in a liquid medium. The method used a 96-well microtitre plate, capable of holding about 200 μl of liquid per well. […] The culture media were as described above for the relevant test organisms. The wells were inoculated with a liquid suspension of freshly grown micro-organism and incubated under the conditions described above. After incubation, the microtitre plate was examined visually (with the aid of a light box) for cell pellets in and/or opaque wells, which would indicate microbial growth. The MIC value was recorded as the lowest concentration of test compound required to inhibit microbial growth, ie, the lowest concentration for which the liquid in the well remained clear. The assays were conducted in duplicate and included both negative (culture medium only) and positive (culture medium, diluting solvent and inoculum) controls.

P. acnes NCTC 737 [4] = test: Supplemented disc diffusion assay (DDA + salt or lipid); assay type: cell-based, Propionibacterium acnes; settings: 200 μg per disc; for DDA + lipid: agar supplemented with lipid; for DDA + salt: agar supplemented with salt
Method: The Propionibacterium spp organisms were cultured and maintained on Wilkins-Chalgren Anaerobe Medium (agar and broth) at pH 6.0; cultures were incubated anaerobically at 37° C. for 72 hours. A sterile paper disc was impregnated with a sample of the test compound and a minimum of 30 minutes allowed for the solvents to evaporate as far as possible. The disc was then placed on an agar plate onto which the test micro-organism had been inoculated. The plate was then incubated under the conditions described above, following which it was examined visually for signs of bacterial growth. If the test compound had antimicrobial activity, a circular zone of no growth would be obtained around the disc. The diameter of this zone of “inhibition” was measured using a ProtoCOL™ automated zone sizer (Synbiosis, Cambridge, UK). In general, a greater diameter and/or area of the zone of inhibition indicates a greater antimicrobial activity in the relevant test compound, although other factors such as test compound mobility through the agar gel may also influence the result. Either the DDA or the SDDA tests may be carried out using an agar gel supplemented with blood, lipid and/or salt to simulate some of the major components present in human skin and to assess whether these substances might reduce the antimicrobial activity observed for the test compounds. Performance under these conditions can provide a more reliable indication of activity on topical application. […] MIC, MBC and DDA assays, as described above, were carried out using BP and a range of different benzoquinones and hydroquinones. Supplemented DDA assays, in the presence of salt and lipid, were also conducted.

P. acnes PRP-053 = test: MBC assay; assay type: cell-based, Propionibacterium acnes; settings: Cutibacterium acnes, PRP053; P. acnes PRP-053 (resistance Tet/MLS)
Method: (§2) Other propionibacterial strains were also tested, as described in Example 8 below. These included certain antibiotic resistant propionibacteria, such as the two P. acnes strains PRP-010 and PRP-053 which are resistant respectively to macrolides-lincosamides-streptogramins-ketolides (MLSK) and to macrolides-lincosamides-streptogramins (MLS) and tetracycline—in other words, PRP-010 is resistant to erythromycin and clindamycin, and […] to erythromycin, clindamycin and tetracycline.
as §1
(§3) This assay, normally carried out after an MIC assay, determines the minimum concentration of a compound that is lethal to the micro-organism being tested.
(§4) These samples were then individually sub-cultured on non-selective agar medium, under the incubation conditions described above. Following incubation they were examined visually for bacterial growth.

P. acnes PRP-010 = test: MBC assay; assay type: cell-based, Propionibacterium acnes; settings: Cutibacterium acnes, PRP010; P. acnes PRP-010 (resistance MLSK)
Method: as §2, §1, §3, §4

S. aureus ATCC 25923 = test: MBC assay; assay type: cell-based; settings: Staphylococcus aureus, ATCC25923
Method: (§5) The staphylococci and enterococci were cultured and maintained on Mueller-Hinton Medium (agar and broth) at pH 7.2; they were incubated aerobically at 37° C. for 24 hours.
as §3, §4

[5] = test system: Staphylococcus auricularis ATCC 33753; test: MBC assay; assay type: cell-based; settings: ATCC33753
Method: as §5, §3, §4

[6] = Table 1, zone diameter, 200 μg per disc (thymoquinone 50 μg)
[7] = S. aureus ATCC 29213, Table 1 (Example 1)
[8] = Table 6 (Example 5), zone diameter, 200 μg per disc
[9] = S. aureus ATCC 29213, Table 5 (Example 5)
[10] = Staphylococcus aureus, ATCC29213, S. aureus ATCC 29213, Table 1 (Example 1), read-out: MIC

SMILES	MIC (S. aureus ATCC 29213 [3]; [7]) [µg/mL]	SDDA area increase (P. acnes NCTC 737 [1]) [%]	SDDA increase (P. acnes NCTC 737 [1]) [mm]	SDDA with BP (P. acnes NCTC 737 [1]) [mm]	DDA (S. aureus ATCC 29213 [2]; [6]) [mm]	DDA + lipid (P. acnes NCTC 737 [4]) [mm]	DDA + salt (P. acnes NCTC 737 [4]) [mm]	DDA (S. aureus ATCC 29213 [2]; [8]) [mm]	MBC (P. acnes PRP-053) [µg/mL]	MBC (P. acnes PRP-010) [µg/mL]	MIC (S. aureus ATCC 29213 [3]; [9]) [µg/mL]	MIC (S. aureus ATCC 29213 [3]; Staphylococcus aureus, ATCC29213) [µg/mL]	MBC (S. aureus ATCC 25923) [µg/mL]	MBC [5] [µg/mL]	MIC (S. aureus ATCC 29213 [3]; [10]) [µg/mL]	MBC (S. aureus ATCC 25923; S. aureus ATCC 25923, read-out: MBC) [µg/mL]
CC(C)(C)c1cc(O)ccc1O [TBHQ, t-butyl hydroquinone]	–	211.51	18.55	42.80	41.77	10.37	19.48	46.79	7.8 (≈ 46.9 µM)	15.6 (≈ 93.9 µM)	7.8 (≈ 46.9 µM)	7.8 (≈ 46.9 µM)	7.8 (≈ 46.9 µM)	1.95 (≈ 11.7 µM)	–	–
O=C(OOC(=O)c1ccccc1)c1ccccc1 [benzoyl peroxide]	–	–	–	–	11.03	–	–	9.61	62.5 (≈ 258 µM)	31.2 (≈ 129 µM)	250 (≈ 1030 µM)	–	–	62.5 (≈ 258 µM)	250 (≈ 1030 µM)	250 (≈ 1030 µM)
O=C1C=CC(=O)C=C1 [p-benzoquinone]	–	77.78	8.29	33.16	29.34	37.98	31.44	–	–	–	–	–	–	–	–	–
CC1=CC(=O)C(C(C)C)=CC1=O [thymoquinone, 2-iso-propyl-5-methyl-p-benzoquinone]	–	79.46	9.33	36.79	15.64	49.01	46.49	–	–	–	–	–	–	–	7.8 (≈ 47.5 µM)	–

Second part, led by results:

MIC (S. aureus ATCC 29213 [3]; [7]) [µg/mL]	SMILES	SDDA area increase (P. acnes NCTC 737 [1]) [%]	SDDA increase (P. acnes NCTC 737 [1]) [mm]	SDDA with BP (P. acnes NCTC 737 [1]) [mm]	DDA (S. aureus ATCC 29213 [2]; [6]) [mm]	DDA + lipid (P. acnes NCTC 737 [4]) [mm]	DDA + salt (P. acnes NCTC 737 [4]) [mm]	DDA (S. aureus ATCC 29213 [2]; [8]) [mm]	MBC (P. acnes PRP-053) [µg/mL]	MBC (P. acnes PRP-010) [µg/mL]	MIC (S. aureus ATCC 29213 [3]; [9]) [µg/mL]	MIC (S. aureus ATCC 29213 [3]; Staphylococcus aureus, ATCC29213) [µg/mL]	MBC (S. aureus ATCC 25923) [µg/mL]	MBC [5] [µg/mL]	MIC (S. aureus ATCC 29213 [3]; [10]) [µg/mL]	MBC (S. aureus ATCC 25923; S. aureus ATCC 25923, read-out: MBC) [µg/mL]
7.8 (≈ 56.5 µM)	Cc1c(O)ccc(O)c1C [2,3-dimethyl-p-hydroquinone]	113.68	10.63	33.65	33.41	13.75	14.38	–	–	–	–	–	–	–	–	–
7.8 (≈ 56.5 µM)	CCc1cc(O)ccc1O [2-ethyl-p-hydroquinone]	84.28	8.23	31.25	21.06	0.0	9.38	–	–	–	–	–	–	–	–	–
62.5 (≈ 568 µM)	Oc1ccc(O)cc1 [p-hydroquinone]	87.01	8.91	33.16	18.94	0.0	0.0	–	–	–	–	–	–	–	–	–
